Results as given in patent US20060057696A1, “Sugar chain synthases” (priority 2002, published 2006).

Biological target: T1, PA-mST8Sia VI (mouse ST8Sia VI) (Mus musculus, UniProt Q8K4T1)
T1 construct: amino acids 26-398 in the case of mouse ST8Sia VI; signal peptide of mouse immunoglobulin IgM (N); made in house; host or cells: COS-7 cells, transient expression of pcDSA-mST8Sia VI; protein recovered from medium on IgG-Sepharose
T1 sequence (Q8K4T1 26-398): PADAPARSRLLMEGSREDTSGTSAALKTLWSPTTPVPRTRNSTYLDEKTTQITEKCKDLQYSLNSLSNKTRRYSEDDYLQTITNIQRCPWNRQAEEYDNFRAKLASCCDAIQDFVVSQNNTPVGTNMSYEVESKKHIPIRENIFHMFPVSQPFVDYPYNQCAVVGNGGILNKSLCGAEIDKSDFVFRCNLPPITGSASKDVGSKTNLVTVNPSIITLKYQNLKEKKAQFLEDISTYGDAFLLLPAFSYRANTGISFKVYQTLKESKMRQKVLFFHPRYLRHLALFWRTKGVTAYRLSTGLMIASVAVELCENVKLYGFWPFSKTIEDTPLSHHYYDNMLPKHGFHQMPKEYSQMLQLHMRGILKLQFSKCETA
Experiment: Sialyltransferase activity of PA-mST8Sia VI toward acceptor substrates
Format: biochemical
Settings: for Relative rate (%) Mouse ST8SiaVI: incorporation with Fetuin taken as 100, substrate 0.5 mg/ml glycolipids, 1 mg/ml glycoproteins, monosaccharides and oligosaccharides
Experimental: Using each expression vector and lipofectamine (Invitrogen), transient expression was carried out in COS-7 cells (Kojima, N. et al. (1995) FEBS Lett. 360, 1-4). The proteins of the present invention secreted from the cells into which each expression vector had been introduced were named as PA-mST8Sia VI (mouse) and PA-hST8Sia VI (human). PA-mST8Sia VI and PA-hST8Sia VI were adsorbed to IgG-Sepharose (Amersham Pharmacia Biotech), and were then recovered from medium. Sialyltransferase activity was measured as follows according to the method of Lee et al. (Lee, Y.-C. et al. (1999) J. Biol. Chem. 274, 11958-11967). A reaction solution (10 μl) containing 50 mM MES buffer (pH 6.0), 1 mM MgCl2, 1 mM CaCl2, 0.5% Triton CF-54, 100 μM CMP-[^14C]-NeuAc, a glycoconjugate (which was added at 0.5 mg/ml in the case of glycolipids, and at 1 mg/ml in the case of glycoproteins or oligosaccharides), and a PA-mST8Sia VI or PA-hST8Sia VI suspension, was incubated at 37° C. for 3 to 20 hours. Thereafter, in the case of glycolipids, the reaction product was purified with a C-18 column (Sep-Pak Vac 100 mg; Waters) and the purified product was used as a sample, and in the case of oligosaccharides or glycoproteins, the reaction product was directly used as a sample. Thus, the obtained samples were subjected to analysis. In the case of oligosaccharides or glycolipids, the sample was spotted on a silica gel 60 HPTLC plate (Merck), and was then developed with a developing solvent consisting of ethanol:pyridine:n-butanol:water:acetic acid=100:10:10:30:3 (for oligosaccharides), a developing solvent consisting of 1-propanol:ammonia water:water=6:1:2.5 (for oligosaccharides), or a developing solvent consisting of chloroform:methanol: 0.02% CaCl2=55:45:10 (for glycolipids). In the case of glycoproteins, analysis was carried out by SDS-polyacrylamide gel electrophoresis. The obtained radioactivities were visualized with a BAS2000 radio image analyzer (Fuji Film) and then quantified.

| Relative rate (%) Mouse ST8SiaVI | activity of PA-mST8Sia VI on the substrate (in words) | Compound |
| --- | --- | --- |
| 411% |  | CC(=O)NC1C(O)OC(CO)C(OC2OC(CO)C(O)C(OC3(C(=O)O)CC(O)C(NC(C)=O)C(C(O)C(O)CO)O3)C2O)C1O (stereo not drawn) [3′-Sialyl-N-acetyllactosamine, NeuAcα2,3Galβ1,4GlcNAc] |
| 13.9% |  | CC(=O)N[C@H]1[C@H]([C@H](O)[C@H](O)CO)O[C@@](O[C@H]2[C@@H](O)[C@@H](CO)OC(O)[C@@H]2O)(C(=O)O)C[C@@H]1O (stereo partly drawn) [3′-Sialylgalactose, NeuAcα2,3Gal] |
| 88.7% |  | CC(=O)N[C@@H]1[C@@H](O)[C@H](O[C@@H]2O[C@H](CO[C@]3(C(=O)O)C[C@H](O)[C@@H](NC(C)=O)[C@H]([C@H](O)[C@H](O)CO)O3)[C@H](O)[C@H](O)[C@H]2O)[C@@H](CO)O[C@H]1O [6′-Sialyl-N-acetyllactosamine, NeuAcα2,6Galβ1,4GlcNAc] |
| 2.0% |  | CC(=O)N[C@H]1[C@H]([C@H](O)[C@H](O)CO)O[C@@](OC[C@H]2OC(O)[C@H](O)[C@@H](O)[C@H]2O)(C(=O)O)C[C@@H]1O (stereo partly drawn) [6′-Sialylgalactose, NeuAcα2,6Gal] |
| 0% |  | O=C[C@H](O)[C@@H](O)[C@@H](O)[C@H](O)CO [Galactose] |
| 0% |  | CC(=O)N[C@H]1C(O)O[C@H](CO)[C@H](O)[C@@H]1O (stereo partly drawn) [N-Acetylgalactosamine] |
| 0% |  | CC(=O)N[C@H]1[C@H]([C@H](O)[C@H](O)CO)OC(O)(C(=O)O)C[C@@H]1O (stereo partly drawn) [N-Acetylneuraminic acid] |
| 0% |  | Galβ1,3GalNAcβ1,4(NeuAcα2,8NeuAcα2,3)Galβ1,4Glcβ1-Cer [GD1b] |
| 1.0% | showed activity | NeuAcα2,3Galβ1,3GalNAcβ1,4Galβ1,4Glcβ1-Cer [GM1b] |
| 3.5% | showed activity | NeuAcα2,3Galβ1,4GlcNAcβ1,3Galβ1,4Glcβ1-Cer [2,3-SPG] |
| 1.0% | showed activity | NeuAcα2,3Galβ1-Cer [GM4] |
| 2.6% | showed activity | NeuAcα2,6Galβ1,3GalNAcβ1,4Galβ1,4Glcβ1-Cer [GSC-68] |
| 0.98% | showed activity | NeuAcα2,6Galβ1,4GlcNAcβ1,3Galβ1,4Glcβ1-Cer [2,6-SPG] |
